According to patent US9358262B2, “Use of antioxidant-enriched fermented blueberry extracts in the treatment of diabetes” (priority 2003, dated 2016):

Experiments:
[1] = test system: RAW 264.7 gamma NO(−) macrophages; assay: Cell viability of activated macrophages (MTT or resazurin assay); assay type: cell-based, mouse
Experimental: Cell culture. […] All cultures were incubated at 37° C. in a humidified atmosphere with 5% CO2. Cell number was assessed by trypan blue dye exclusion on a Neubauer hemacytometer. Cells were grown to 90% confluence in sterile cell culture flasks and gently detached using a scraper (Fisher Scientific). For phenolic compound treatment tests, cells were cultured in triplicate in Costar flat-bottom cell culture plates (Corning Inc.). Cells were plated at a density of 6×10^5 cells/well in 24-well cell culture plates and grown for 1 h to allow them to attach to the plate. Compounds to be tested were initially dissolved in 10 μl of DMSO, and then RPMI was added to make solutions in a series of concentrations with a dilution factor of 2. […] Cells were supplemented with the test compounds for 1 h before stimulation with 10 ng/ml lipopolysaccharide (LPS) and 10-50 units/ml interferon gamma (IFN-γ). The activated cells were incubated for 24 h and then supernatants were collected to determine nitrite concentration and/or stored at −80° C. for further use. Control cells were grown under identical conditions but were not exposed to the test compounds or LPS/IFN-γ.
Cell Viability. Cell viability was determined by the MTT assay and/or the resazurin-based in vitro toxicology assay kit, TOX-8 (Sigma). The viability of cells activated only by LPS/IFN-γ was arbitrarily set as 100, and all other viabilities, that is, cells receiving different treatments but within the same 24-well plate, were normalized to that of the LPS/IFN-γ activated control cells.
Inhibition of Nitric Oxide Production. […] Cell viability was assayed to exclude the possibility that the inhibitory effects of phenolic compounds were due to their cytotoxicity. The MTT assay was used for the colorless phenolic compound-treated macrophages, whereas the resazurin assay was used for cranberry and blueberry juice-treated macrophages.

[2] = test system: TNF-α production in LPS/IFN-γ-activated RAW 264.7 gamma NO(−) macrophages; assay: TNF-α quantification (ELISA) in supernatants of activated macrophages; assay type: cell-based, mouse; conditions: for TNF-α: LPS/IFN-γ control = 100; for Effect on TNF-α production, in words: over the tested concentrations
Experimental: Cell culture. The mouse monocyte/macrophage cell line RAW 264.7 gamma NO(−) [American Type Culture Collection (ATCC)] was cultured in RPMI-1640 supplemented with 10% (v/v) heat-inactivated FBS, streptomycin ([…]) and penicillin (100 units/ml). All cultures were incubated at 37° C. in a humidified atmosphere with 5% CO2. Cell number was assessed by trypan blue dye exclusion on a Neubauer hemacytometer. Cells were grown to 90% confluence in sterile cell culture flasks and gently detached using a scraper (Fisher Scientific). For phenolic compound treatment tests, cells were cultured in triplicate in Costar flat-bottom cell culture plates (Corning Inc.). Cells were plated at a density of 6×10^5 cells/well in 24-well cell culture plates and grown for 1 h to allow them to attach to the plate. Compounds to be tested were initially dissolved in 10 μl of DMSO, and then RPMI was added to make solutions in a series of concentrations with a dilution factor of 2. […] For berry juices, the final concentrations were 16, 31, 63, 125, 250 and 500 μM GAE, respectively. Cells were supplemented with the test compounds for 1 h before stimulation with 10 ng/ml lipopolysaccharide (LPS) and 10-50 units/ml interferon gamma (IFN-γ). The activated cells were incubated for 24 h and then supernatants were collected to determine nitrite concentration and/or stored at −80° C. for further use. Control cells were grown under identical conditions but were not exposed to the test compounds or LPS/IFN-γ.
Tumour necrosis factor alpha (TNF-α) Quantification. TNF-α in cell supernatants was determined by using an OptELISA set mouse TNF-α (mono/poly) from BD PharMingen. The enzyme-linked immunosorbent assay (ELISA) was carried out as specified by the manufacturer.

[3] = NO experiment (Table 7), 31 μM, LPS/IFN-γ control = 100
[4] = NO experiment (Table 7), 63 μM, LPS/IFN-γ control = 100
[5] = NO experiment (Table 7), 125 μM, LPS/IFN-γ control = 100
[6] = TNF-α experiment (Table 8), 100 μM
[7] = TNF-α experiment (Table 8), 200 μM
[8] = TNF-α experiment (Table 8), 300 μM
[9] = TNF-α experiment (Table 8), 400 μM
[10] = TNF-α experiment (Table 8), 500 μM

SMILES	Cell viability [1, 3]	Cell viability [1, 4]	Cell viability [1, 5]	Cell viability [1, 6]	Cell viability [1, 7]	Cell viability [1, 8]	Cell viability [1, 9]	Cell viability [1, 10]	TNF-α ([2]; 50 μM)	TNF-α ([2]; 200 μM)	TNF-α ([2]; 400 μM)	TNF-α ([2]; 500 μM)	Effect on TNF-α production, in words [2]	Cell viability ([1]; NO experiment (Table 7), 16 μM, LPS/IFN-γ control = 100)	Cell viability ([1]; NO experiment (Table 7), 250 μM, LPS/IFN-γ control = 100)	Cell viability ([1]; NO experiment (Table 7), 500 μM, LPS/IFN-γ control = 100)	Cell viability ([1]; TNF-α experiment (Table 8), 50 μM)	TNF-α ([2]; 100 μM)	TNF-α ([2]; 300 μM)
O=C(/C=C/c1ccc(O)c(O)c1)O[C@@H]1C[C@](O)(C(=O)O)C[C@@H](O)[C@H]1O [Chlorogenic acid]	105.6 (8.7) %	106 (5.7) %	98.5 (7.1) %	100.6 (1.9) %	98.9 (2.3) %	97.1 (1.4) %	97.3 (1) %	99 (1.9) %	105.7 (8.4) %	99.2 (7.6) %	126 (31.1) %	115.6 (15.4) %	may induce TNF-α production						
O=C(O)c1cc(O)c(O)c(O)c1 [Gallic acid]	111 (6.4) %	98.9 (0.9) %	108.5 (0.6) %	98.3 (2.3) %	96.7 (0.8) %	97.6 (2.5) %	96.1 (2.3) %	95.6 (1.6) %	103.4 (3.2) %	160.3 (8.4) %	213.9 (54.8) %	183.5 (19.8) %	may induce TNF-α production	110 (2.2) %	100.6 (3.7) %	109.7 (5.4) %	97.7 (0.4) %	126.2 (11) %	257.4 (36.7) %
